In ChEMBL document CHEMBL5661955, “ASAP - In vitro cytotoxicity” (2024):
“And” between values parts separate entries of the source, which are not always exact repeats. Equal entries are not always repeated.

Tests used:
[1] = Functional assay to measure dose dependent changes in cell viability from drug treatment in Vero E6 miRFP670 cells (cotreated with P-gp inhibitor, CP100356) that are infected with Dengue virus type 2 New Guinea C. […] Cytotoxicity is reported via via analysis of DAPI count using high-content imager. The assay has been performed by KU Leuven.; format: toxicity, cell-based, Vero C1008; settings: chlorocebus sabaeus, p-gp concentration 500 nM
[2] = Functional metabolic assay to measure dose dependent changes in cell viability from drug treatment in Vero E6/TMPRSS2 cells (cotreated with P-gp inhibitor, Elacridar). […] Cytotoxicity is reported via measuring absorbance and analysis of MTT/MTS assays in uninfected cells. The assay has been performed by Icahn School of Medicine at Mount Sinai.; format: toxicity, cell-based, VeroE6/TMPRSS2; settings: chlorocebus sabaeus, p-gp concentration 2 uM; for CC50: Vero E6/TMPRSS2 cells, with Elacridar (P-gp inhibitor, concentration not stated); for CC10: veroe6/tmprss2
[3] = Functional CPE-based assay to measure dose dependent changes in cell viability from drug treatment in Vero E6 miRFP670 cells (cotreated with P-gp inhibitor, CP100356). Cells are treated with antiviral candidates that have been serially diluted. Cytotoxicity is reported via analysis of MTS assays in uninfected cells. The assay has been performed by KU Leuven.; format: toxicity, Vero C1008; settings: chlorocebus sabaeus, p-gp concentration 500 nM
[4] = Functional CPE-based assay to measure dose dependent changes in cell viability from drug treatment in Vero E6 miRFP670 cells. Cells are treated with antiviral candidates that have been serially diluted. Cytotoxicity is reported via analysis of MTS assays in uninfected cells. The assay has been performed by KU Leuven.; format: toxicity, Vero C1008; settings: chlorocebus sabaeus, Vero E6 miRFP670 cells
[5] = with CP100356 (P-gp inhibitor, concentration not stated)
[6] = Vero E6 miRFP670 cells, with CP100356 (P-gp inhibitor, concentration not stated)

Row | Structure (SMILES) | CC50 [1, 5] | CC50 [2] | CC10 [2] | CC50 [3, 6] | CC50 [4] | CC50 ([1]; vero c1008) | CC50 ([3]; vero c1008)
1 | O=C(Nc1ccc2c(c1)CNC2)c1cc(Br)cc2[nH]ncc12 | > 50 µM | > 50 µM | > 50 µM | > 50 µM | – | – | –
2 | Cn1cc(CCc2nc3c(C(=O)Nc4ccc5c(c4)CNC5)cc(Cl)cc3[nH]2)cn1 | > 50 µM | > 50 µM | 17.311 µM | > 50 µM | – | – | –
3 | CC(C)c1cc(Br)cc(C(=O)Nc2ccc3c(c2)CNC3)c1 | – | – | – | – | 11.5 µM | – | –
4 | CN1Cc2ccc(NC(=O)c3cc(Cl)cc4[nH]ncc34)cc2C1 | – | – | – | – | > 50 µM | – | –
5 | O=C(Nc1cc(Cl)cc(-c2cccc3c(C(=O)O)cccc23)c1)OCc1ccccc1 | – | – | – | – | < 0.391 µM | – | –
6 | N[C@H]1Cc2ccc(NC(=O)c3cc(Cl)cc4[nH]ncc34)cc2C1 | > 50 µM | > 50 µM | > 50 µM | > 50 µM | – | – | –
7 | CC(=O)NCc1cccc(NC(=O)c2cc(Cl)cc(NC(=O)OCc3ccccc3)c2)c1 | – | – | – | – | 38 µM | – | –
8 | COc1cc(Br)cc(C(=O)Nc2ccc3c(c2)CNC3)c1 | 27.5 µM | > 50 µM | 4.817 µM | 47.5 µM | – | – | –
9 | O=C(Nc1ccc2c(c1)CNC2)c1cc(C(F)(F)F)cc2[nH]ccc12 | > 50 µM | > 50 µM | > 50 µM | > 50 µM | – | – | –
10 | N#Cc1cc(C(=O)Nc2ccc3c(c2)CNC3)cc(C(F)(F)F)c1 | 0.739 µM | > 50 µM | > 50 µM | > 50 µM | – | – | –
11 | NCc1cc(Cl)cc(C(=O)Nc2ccc3c(c2)CNC3)c1 | – | – | – | – | > 50 µM | – | –
12 | O=C(NC1CCCCC1)c1cc(Cl)ccc1NS(=O)(=O)c1ccc(Oc2ccccc2Cl)cc1 | – | – | – | – | 3.46 µM | – | –
13 | O=C(Nc1ccc2c(c1)CNC2)c1cc(Cl)cc2c1CCC2 | – | – | – | – | 18.4 µM | – | –
14 | O=C(Nc1ccc2c(c1)CNCC2)c1cc(Cl)cc2[nH]ncc12 | – | – | – | – | > 50 µM | – | –
15 | O=C(Nc1cc(Cl)cc(C(=O)Nc2cccc([C@H]3C[C@H]3C(=O)O)c2)c1)OCc1ccccc1 | – | – | – | – | > 50 µM | – | –
16 | COc1cc(-c2cc(Cl)cc(NC(=O)OCc3ccccc3)c2)c(OC)cc1CC(=O)O | – | – | – | – | 49.8 µM | – | –
17 | O=C(Nc1cc(Cl)cc([C@H]2[C@H](CO)[C@@H]2c2cccc(-c3nn[nH]n3)c2)c1)OCc1ccccc1 | – | – | – | – | > 50 µM | – | –
18 | O=C(Nc1cccc(-c2nnn[nH]2)c1)c1cc(Cl)cc(C2CC2)c1 | – | – | – | – | > 50 µM | – | –
19 | NCc1cccc(NC(=O)c2cc(Cl)cc3[nH]ncc23)c1 | – | – | – | – | > 50 µM | – | –
20 | COc1ccc(S(=O)(=O)Nc2cc(F)c(Cl)cc2C(=O)NCC(C)C)cc1 | – | – | – | – | 4.25 µM | – | –
21 | COC(=O)CNC(=O)[C@H](Nc1ccc2c(c1)CNC2)c1cc(Cl)cc(C2CC2)c1 | 2.05 µM | > 50 µM | – | > 50 µM | – | – | –
22 | O=C(Nc1ccc2c(c1)CNC2)c1cc(F)cc2[nH]ncc12 | > 50 µM | > 50 µM | > 50 µM | > 50 µM | – | – | –
23 | N#CCCNC(=O)[C@H](Nc1ccc2c(c1)CNC2)c1cc(Cl)cc(C2CC2)c1 | 24.2 µM | > 50 µM | > 50 µM | > 50 µM | – | – | –
24 | CNC(=O)[C@H](Nc1ccc2c(c1)CNC2)c1cc(Cl)cc(C2CC2)c1 | > 50 µM | > 50 µM | > 50 µM | > 50 µM | – | – | –
25 | CC(C)Oc1ccc(S(=O)(=O)Nc2ccc(Cl)cc2C(=O)O)cc1 | – | – | – | – | > 50 µM | – | –
26 | CCc1cc(C(=O)Nc2cccc(-c3nnn[nH]3)c2)sc1-c1ccc(Cl)cc1 | > 50 µM | > 50 µM | > 50 µM | 38.6 µM | – | – | –

Row | Structure (SMILES) | CC50 [1, 5] | CC50 [2] | CC10 [2] | CC50 [3, 6] | CC50 [4] | CC50 ([1]; vero c1008) | CC50 ([3]; vero c1008)
27 | O=C(Nc1ccc2c(c1)CNC2)c1cc(F)cc2[nH]nnc12 | > 50 µM | > 50 µM | > 50 µM | > 50 µM | – | – | –
28 | O=C1Cc2c(cc(Br)cc2C(=O)Nc2ccc3c(c2)CNC3)N1 | 27.7 µM | > 50 µM | – | > 50 µM | – | – | –
29 | NCc1cccc(NC(=O)c2cc(Cl)cc(C3CC3)c2)c1 | – | – | – | – | 46.6 µM | – | –
30 | O=C(NC[C@H]1CCCO1)[C@H](Nc1ccc2c(c1)CNC2)c1cc(Cl)cc2[nH]ncc12 | > 50 µM | > 50 µM | > 50 µM | > 50 µM | – | – | –
31 | N#C[C@H](Nc1ccc2c(c1)CNC2)c1cc(Cl)cc(C2CC2)c1 | > 50 µM | > 50 µM | > 50 µM | 46.5 µM | – | – | –
32 | O=C(NCC1CC1)c1cc(Cl)ccc1NS(=O)(=O)c1ccc(Oc2ccccc2Cl)cc1 | – | – | – | – | 5.46 µM | – | –
33 | O=C(NC1CCOCC1)[C@H](Nc1ccc2c(c1)CNC2)c1cc(Cl)cc(C2CC2)c1 | > 50 µM | > 50 µM | > 50 µM | 49.9 µM | – | – | –
34 | O=C(Nc1ccc2c(c1)CNC2)c1cc(Br)cc2[nH]c([C@H]3CCOC3)nc12 | 3.68 µM | 26.1 µM | 0.852 µM | 5.11 µM | – | – | –
35 | Cc1c(C(=O)Nc2cc(-c3cccnc3)ccn2)cc(C2CC2)n1C | 18.9 µM | > 50 µM | 13.062 µM | > 50 µM | – | 11.9 µM | 40.1 µM
36 | O=C(Nc1ccc2c(c1)CNC2)c1cc(Br)cc2ccccc12 | – | – | – | – | 11.4 µM | – | –
37 | CCOCCNC(=O)c1cc(Cl)ccc1NS(=O)(=O)c1ccc(Oc2ccccc2Cl)cc1 | – | – | – | – | 8.81 µM | – | –
38 | Cc1ccc(NC(=O)c2cc(Cl)cc3[nH]ncc23)cc1CN | > 50 µM | > 50 µM | 0.133 µM | > 50 µM | – | – | –
39 | O=C(NCc1ccc(F)cc1)[C@H](Nc1ccc2c(c1)CNC2)c1cc(Cl)cc2[nH]ncc12 | > 50 µM | – | > 50 µM | > 50 µM | – | – | –
40 | Nc1cc(Cl)cc(C(=O)Nc2ccc3c(c2)CNC3)c1N | > 50 µM | > 50 µM | < 0.023 µM | > 50 µM | – | – | –
41 | CC(C)(C)c1cc(Br)cc(C(=O)Nc2ccc3c(c2)CNC3)c1 | – | – | – | – | 5.77 µM | – | –
42 | O=C(NCC(F)F)[C@H](Nc1ccc2c(c1)CNC2)c1cc(Cl)cc(C2CC2)c1 | – | > 50 µM | – | > 50 µM | – | > 50 µM and 21.1 µM and 27.1 µM | 46.9 µM and 47.6 µM
43 | Cc1c(C(=O)Nc2cc([C@H]3CCOC3)ccn2)cc(C2CC2)n1C | > 50 µM | > 50 µM | > 50 µM | – | – | 29.2 µM | 9.14 µM and > 50 µM
44 | Cn1cc(CNC(=O)[C@H](Nc2ccc3c(c2)CNC3)c2cc(Cl)cc(C3CC3)c2)cn1 | > 50 µM | > 50 µM | – | > 50 µM | – | – | –
45 | O=C(Nc1ccc2c(c1)CCNCC2)c1cc(Cl)cc2[nH]ncc12 | > 50 µM | 44.2 µM | 7.014 µM | > 50 µM | – | – | –
46 | Cn1cc2cc(Cl)cc(C(=O)Nc3ccc4c(c3)CNC4)c2n1 | 3.58 µM | > 50 µM | > 50 µM | 2.75 µM | – | – | –
47 | COCCNC(=O)[C@H](Nc1ccc2c(c1)CNC2)c1cc(Cl)cc(C2CC2)c1 | > 50 µM | > 50 µM | > 50 µM | > 50 µM | – | – | –
48 | Cc1cc(C(=O)Nc2ccc3c(c2)CNC3)c2cn[nH]c2c1 | 24 µM | – | 24.901 µM and 9.914 µM | > 50 µM | – | – | –
49 | O=C(Nc1ccc2c(c1)CNC2)c1cc(Cl)cc2ccncc12 | > 50 µM | > 50 µM | > 50 µM | > 50 µM | – | – | –
50 | O=C(NC[C@H]1CCCO1)[C@H](Nc1ccc2c(c1)CNC2)c1cc(Cl)cc(C2CC2)c1 | > 50 µM | > 50 µM | > 50 µM | 39.2 µM | – | – | –
51 | N#Cc1cccc(-c2nc3c(C(=O)Nc4ccc5c(c4)CNC5)cc(F)cc3[nH]2)c1 | 20.7 µM | – | – | 29.2 µM | – | – | –
